System: MCF-7 breast cancer cells
Experiment: Microarray gene expression analysis (Agilent whole human genome 4 x 44K; compound vs DMSO, LIMMA log2 fold change)
Type: cell-based
Conditions: Apoptosis genes

In the case of `Oc1cccc(-c2nc(N3CCOCC3)c3oc4ncccc4c3n2)c1` [PI-103], the “CTNNA1 log2FC” value (Gene 1495) is reported as 0.421, the “CTNNB1 log2FC” value (Gene 1499) is reported as 0.098 and the “CTSB log2FC” value (Gene 1508) is reported as 0.047. For the same compound, the “CTSH log2FC” value (Gene 1512) was -0.000676, the “CTSL log2FC” value (Gene 1514) was 0.329 and the “CX3CR1 log2FC” value (Gene 1524) was 0.187. The “CYLD log2FC” value (Gene 1540) was 0.377, the “DAB2 log2FC” value (Gene 1601) was -0.118 and the “DAD1 log2FC” value (Gene 1603) was -0.506. For the same compound, the “DAP log2FC” value (Gene 1611) was -0.163, the “DAPK1 log2FC” value (Gene 1612) was 0.477 and the “DAPK3 log2FC” value (Gene 1613) was -0.075. For the same compound, the “DBH log2FC” value (Gene 1621) was -0.084, the “DCC log2FC” value (Gene 1630) was -0.032 and the “GADD45A log2FC” value (Gene 1647) was -0.795. The “DDIT3 log2FC” value (Gene 1649) was 2.078, the “DDX3X log2FC” value (Gene 1654) was -1.134 and the “DDX5 log2FC” value (Gene 1655) was -1.225. The “DFFA log2FC” value (Gene 1676) was -0.256, the “DFNA5 log2FC” value (Gene 1687) was -0.030 and the “DHCR24 log2FC” value (Gene 1718) was -0.730. The “DHODH log2FC” value (Gene 1723) was -0.198, the “NQO1 log2FC” value (Gene 1728) was -0.052 and the “DLX1 log2FC” value (Gene 1745) was -0.636. For the same compound, the “DNASE1 log2FC” value (Gene 1773) was 0.269, the “DNASE1L3 log2FC” value (Gene 1776) was -0.152 and the “DNASE2 log2FC” value (Gene 1777) was 0.667. The “DOCK1 log2FC” value (Gene 1793) was 0.305, the “DPEP1 log2FC” value (Gene 1800) was 0.033 and the “ATN1 log2FC” value (Gene 1822) was -0.173. For the same compound, the “DSG1 log2FC” value (Gene 1828) was -0.439, the “DSG2 log2FC” value (Gene 1829) was 0.213 and the “DSG3 log2FC” value (Gene 1830) was -0.053. The “TSC22D3 log2FC” value (Gene 1831) was 0.499, the “DSP log2FC” value (Gene 1832) was 0.622 and the “DUSP1 log2FC” value (Gene 1843) was -0.801. The “DUSP2 log2FC” value (Gene 1844) was -2.156, the “DUSP6 log2FC” value (Gene 1848) was -1.955 and the “E2F1 log2FC” value (Gene 1869) was -0.119. For the same compound, the “E2F2 log2FC” value (Gene 1870) was -0.377, the “ECT2 log2FC” value (Gene 1894) was 0.836 and the “EDN1 log2FC” value (Gene 1906) was 0.126. The “EDNRA log2FC” value (Gene 1909) was 0.064, the “EDNRB log2FC” value (Gene 1910) was -0.042 and the “EEF1A2 log2FC” value (Gene 1917) was 0.203. The “EFNA5 log2FC” value (Gene 1946) was -0.125, the “EGFR log2FC” value (Gene 1956) was 0.479 and the “EGR1 log2FC” value (Gene 1958) was -2.608. For the same compound, the “EGR2 log2FC” value (Gene 1959) was -0.367, the “EPHA2 log2FC” value (Gene 1969) was -1.806 and the “EIF5A log2FC” value (Gene 1984) was -0.261. For the same compound, the “ENDOG log2FC” value (Gene 2021) was -0.245, the “EP300 log2FC” value (Gene 2033) was -0.124 and the “EPHA7 log2FC” value (Gene 2045) was -0.025. The “CLN8 log2FC” value (Gene 2055) was -0.236, the “EPO log2FC” value (Gene 2056) was -0.136 and the “ERBB3 log2FC” value (Gene 2065) was 0.809. The “ERBB4 log2FC” value (Gene 2066) was 0.106, the “ERCC2 log2FC” value (Gene 2068) was -0.269 and the “ERCC3 log2FC” value (Gene 2071) was -0.108. For the same compound, the “ERCC5 log2FC” value (Gene 2073) was 0.823, the “ERCC6 log2FC” value (Gene 2074) was 0.488 and the “ERN1 log2FC” value (Gene 2081) was -0.108. For the same compound, the “ESR1 log2FC” value (Gene 2099) was -0.048, the “ESR2 log2FC” value (Gene 2100) was -0.062 and the “ETS1 log2FC” value (Gene 2113) was -0.820. For the same compound, the “EYA2 log2FC” value (Gene 2139) was -0.257, the “F2R log2FC” value (Gene 2149) was 0.377 and the “F3 log2FC” value (Gene 2152) was -0.177. The “PTK2B log2FC” value (Gene 2185) was 0.175, the “FCER1G log2FC” value (Gene 2207) was -0.541 and the “FGD1 log2FC” value (Gene 2245) was -0.255. For the same compound, the “FGF4 log2FC” value (Gene 2249) was 0.019, the “FGF8 log2FC” value (Gene 2253) was -0.135 and the “FGF10 log2FC” value (Gene 2255) was -0.00185. The “FGFR1 log2FC” value (Gene 2260) was -0.374, the “FGFR3 log2FC” value (Gene 2261) was -0.164 and the “FGFR2 log2FC” value (Gene 2263) was 1.806. For the same compound, the “FHIT log2FC” value (Gene 2272) was -0.336, the “FHL2 log2FC” value (Gene 2274) was -0.078 and the “FOXC1 log2FC” value (Gene 2296) was -0.767. For the same compound, the “FOXC2 log2FC” value (Gene 2303) was -0.284, the “FLT3 log2FC” value (Gene 2322) was 0.120 and the “FLT4 log2FC” value (Gene 2324) was -0.157. For the same compound, the “FNTA log2FC” value (Gene 2339) was 0.629, the “FXN log2FC” value (Gene 2395) was -0.514 and the “FRZB log2FC” value (Gene 2487) was 0.040. The “FYN log2FC” value (Gene 2534) was 0.082, the “G6PD log2FC” value (Gene 2539) was -0.156 and the “GABRA5 log2FC” value (Gene 2558) was -0.0016. The “GABRB2 log2FC” value (Gene 2561) was -0.080, the “GABRB3 log2FC” value (Gene 2562) was -0.025 and the “GAS1 log2FC” value (Gene 2619) was 0.756. For the same compound, the “GAS2 log2FC” value (Gene 2620) was 0.149, the “GATA1 log2FC” value (Gene 2623) was -0.018 and the “GATA3 log2FC” value (Gene 2625) was -0.114. The “GDNF log2FC” value (Gene 2668) was -0.175, the “B4GALT1 log2FC” value (Gene 2683) was 0.192 and the “GJA1 log2FC” value (Gene 2697) was -0.613. The “GCLC log2FC” value (Gene 2729) was 0.812, the “GLI3 log2FC” value (Gene 2737) was 0.540 and the “GLO1 log2FC” value (Gene 2739) was -0.070. The “GML log2FC” value (Gene 2765) was -0.071, the “GNB1 log2FC” value (Gene 2782) was -0.085 and the “GNGT1 log2FC” value (Gene 2792) was -0.037. For the same compound, the “GNRH1 log2FC” value (Gene 2796) was 0.097, the “SFN log2FC” value (Gene 2810) was -1.150 and the “GPLD1 log2FC” value (Gene 2822) was -0.157. For the same compound, the “CXCR3 log2FC” value (Gene 2833) was -0.474, the “GRK5 log2FC” value (Gene 2869) was -0.059 and the “MKNK2 log2FC” value (Gene 2872) was -0.826. For the same compound, the “GPX1 log2FC” value (Gene 2876) was 0.431, the “GRID2 log2FC” value (Gene 2895) was -0.052 and the “GRIK2 log2FC” value (Gene 2898) was 0.091. For the same compound, the “GRIK5 log2FC” value (Gene 2901) was -0.101, the “GRIN1 log2FC” value (Gene 2902) was -0.444 and the “GRIN2A log2FC” value (Gene 2903) was -0.041. The “NR3C1 log2FC” value (Gene 2908) was 1.042, the “GRM4 log2FC” value (Gene 2914) was -0.029 and the “PDIA3 log2FC” value (Gene 2923) was -0.085. For the same compound, the “GSK3A log2FC” value (Gene 2931) was -0.030, the “GSK3B log2FC” value (Gene 2932) was -0.455 and the “GSN log2FC” value (Gene 2934) was 0.174. The “GSTP1 log2FC” value (Gene 2950) was 0.117, the “MSH6 log2FC” value (Gene 2956) was -0.075 and the “GZMH log2FC” value (Gene 2999) was -0.148. The “GZMA log2FC” value (Gene 3001) was -0.034, the “GZMB log2FC” value (Gene 3002) was -0.002 and the “GZMM log2FC” value (Gene 3004) was -0.381. For the same compound, the “H1F0 log2FC” value (Gene 3005) was 0.834, the “HCK log2FC” value (Gene 3055) was -0.033 and the “HDAC1 log2FC” value (Gene 3065) was -0.547. For the same compound, the “HDAC2 log2FC” value (Gene 3066) was 0.060, the “HELLS log2FC” value (Gene 3070) was 0.140 and the “NCKAP1L log2FC” value (Gene 3071) was 0.054. The “HGF log2FC” value (Gene 3082) was -0.198, the “NRG1 log2FC” value (Gene 3084) was -1.164 and the “HIC1 log2FC” value (Gene 3090) was -0.122. The “HIF1A log2FC” value (Gene 3091) was 0.019, the “HIP1 log2FC” value (Gene 3092) was -0.167 and the “HINT1 log2FC” value (Gene 3094) was 0.210. The “HK2 log2FC” value (Gene 3099) was -1.428, the “HMGB1 log2FC” value (Gene 3146) was 0.343 and the “HMGB2 log2FC” value (Gene 3148) was 1.070. The “HMGCR log2FC” value (Gene 3156) was 0.051, the “HMOX1 log2FC” value (Gene 3162) was 1.050 and the “NR4A1 log2FC” value (Gene 3164) was -0.484. For the same compound, the “HOXA5 log2FC” value (Gene 3202) was 0.436, the “HOXA13 log2FC” value (Gene 3209) was 0.042 and the “HRAS log2FC” value (Gene 3265) was -0.758. The “HRG log2FC” value (Gene 3273) was -0.015, the “PRMT2 log2FC” value (Gene 3275) was 0.289 and the “HSPA1A log2FC” value (Gene 3303) was -2.361. For the same compound, the “HSPA5 log2FC” value (Gene 3309) was -0.793, the “HSPB1 log2FC” value (Gene 3315) was -0.135 and the “HSP90AA1 log2FC” value (Gene 3320) was 0.717. The “HSP90AB1 log2FC” value (Gene 3326) was -0.430.

Reference: article PMC4303209, “A novel phosphatidylinositol 3-kinase (PI3K) inhibitor directs a potent FOXO-dependent, p53-independent cell cycle arrest phenotype characterized by the differential induction of a subset of FOXO-regulated genes” (Breast Cancer Research : BCR, 2014)
